test system: NO production in BV2 microglial cell cultures treated with lipopolysachharide (LPS); experiment: Inhibition of NO production in LPS-treated BV2 microglial cell cultures; assay type: cell-based; details: BV2 cells

Q: `O=C(Nc1ccccc1Cl)[C@H]1C[C@@H]1c1cccc(F)c1` (racemic) [Compound 1c] was tested. Which “anti-inflammatory potency compared to DFB (in words)” value did it give?
A: Its value is “decreased anti-inflammatory potency”.

Q: Which “anti-inflammatory potency compared to DFB (in words)” value does the source give for `O=C(Nc1ccccc1F)[C@H]1C[C@@H]1c1cccc(F)c1` (racemic) [Compound 1a, N-(2-fluorophenyl)-2-(3-fluorophenyl) cyclopropane-1-carboxamide] here?
A: The value was “decreased anti-inflammatory potency”.

Q: With `O=C(Nc1ccc(F)cc1)[C@H]1C[C@@H]1c1cccc(F)c1` (racemic) [Compound 1b] as the molecule, how does the “anti-inflammatory potency compared to DFB (in words)” value read?
A: The value was “decreased anti-inflammatory potency”.

Q: How did the “anti-inflammatory potency compared to DFB (in words)” value turn out when `O=C(Nc1nc2ccccc2[nH]1)[C@H]1C[C@@H]1c1cccc(F)c1` (racemic) [Compound 1f, N-(1H-benzo[d]imidazol-2-yl)-2-(3-fluorophenyl)cyclopropane-1-carboxamide] was run?
A: The value was “superior potency to DFB”.

Q: For `COc1cc(Br)ccc1NC(=O)[C@H]1C[C@@H]1c1cccc(Cl)c1` (racemic) [Compound 2d, N-(4-Bromo-2-methoxyphenyl)-2-(3-chlorophenyl)cyclopropane-1-carboxamide], which “anti-inflammatory potency compared to DFB (in words)” value is on record?
A: The value was “decreased potency”.

Q: `O=C(Nc1nc2ccccc2[nH]1)[C@H]1C[C@@H]1c1cccc(Cl)c1` (racemic) [Compound 2f] was tested. Which “anti-inflammatory potency compared to DFB (in words)” value did it give?
A: The value was “improved potency”.

Q: `O=C(Nc1nc2ccccc2s1)[C@H]1C[C@@H]1c1cccc(F)c1` (racemic) [Compound 1e, N-(Benzo[d]thiazol-2-yl)-2-(3-fluorophenyl)cyclopropane-1-carboxamide] was tested. Which “anti-inflammatory potency compared to DFB (in words)” value did it give?
A: Its value is “superior potency to DFB”.

test system: BV2 microglial cells; experiment: Cell viability assay; assay type: cell-based; details: not given

Q: Which “BV2 cell toxicity / viability (in words)” value does the source give for `O=C(N[C@H]1C[C@@H]1c1cccc(F)c1)c1ccc([N+](=O)[O-])cc1` (racemic) [Compound 3d] here?
A: The value was “significant BV2 cell toxicity”.

Q: `COc1cc(Br)ccc1NC(=O)[C@H]1C[C@@H]1c1cccc(F)c1` (racemic) [Compound 1d, N-(4-Bromo-2-methoxyphenyl)-2-(3-fluorophenyl)cyclopropane-1-carboxamide] was tested. Which “BV2 cell toxicity / viability (in words)” value did it give?
A: Its value is “excellent BV2 microglial cell viability”.

Q: How did the “BV2 cell toxicity / viability (in words)” value turn out when `O=C(N[C@H]1C[C@@H]1c1cccc(F)c1)c1cccc(F)c1` (racemic) [Compound 3a, 3-fluoro-N-(2-(3-fluorophenyl)cyclopropyl)benzamide] was run?
A: Its value is “excellent cell viability”.

Q: How did the “BV2 cell toxicity / viability (in words)” value turn out when `O=C(N[C@H]1C[C@@H]1c1cccc(F)c1)c1cccc([N+](=O)[O-])c1` (racemic) [Compound 3c] was run?
A: Its value is “significant BV2 cell toxicity”.

Reference: article PMC4690453 (Bioorganic & medicinal chemistry letters, 2015)
